The values that follow are results of earlier work, collected in patent publication US8937081B2, “Statin bioavailability enhancement delivery composition” (PruGen IP Holdings, Inc., priority 2011, dated 2015).

For data set [1] the following is noted: among the marketed statins.
Another data set concerns hepatocytes. The note with it: in hepatocytes.

Turning to `COCc1c(C(C)C)nc(C(C)C)c(/C=C/[C@@H](O)C[C@@H](O)CC(=O)O)c1-c1ccc(F)cc1` [cerivastatin], in data set [1], the “percentage of serious adverse effects” value is “largest percentage of serious adverse effects”.
For `CC(C)c1nc(N(C)S(C)(=O)=O)nc(-c2ccc(F)cc2)c1/C=C/[C@@H](O)C[C@@H](O)CC(=O)O` [rosuvastatin], in the data set with hepatocytes, the IC50 entry is on record as “low”.
